Holding throughout (type): functional
In assay [1] the target is Lysine--tRNA ligase (Plasmodium falciparum (isolate 3D7), UniProt Q8IDJ8). Nature of the assay: MMV: KRS recombinant Plasmodium falciparum Lysyl-tRNA-synthetase, assay with yeast tRNA, ATP, and lysine and 3 uM MMV malaria box compound, assay read out with kinase glo as % inhibition. (In general: Kinase-Glo measures the ATP left after a reaction by luminescence.)
The target in assay [2] is T1, Calcium-dependent protein kinase 4 (Plasmodium falciparum (isolate 3D7), UniProt Q8IBS5).
T1 sequence (Q8IBS5 whole entry): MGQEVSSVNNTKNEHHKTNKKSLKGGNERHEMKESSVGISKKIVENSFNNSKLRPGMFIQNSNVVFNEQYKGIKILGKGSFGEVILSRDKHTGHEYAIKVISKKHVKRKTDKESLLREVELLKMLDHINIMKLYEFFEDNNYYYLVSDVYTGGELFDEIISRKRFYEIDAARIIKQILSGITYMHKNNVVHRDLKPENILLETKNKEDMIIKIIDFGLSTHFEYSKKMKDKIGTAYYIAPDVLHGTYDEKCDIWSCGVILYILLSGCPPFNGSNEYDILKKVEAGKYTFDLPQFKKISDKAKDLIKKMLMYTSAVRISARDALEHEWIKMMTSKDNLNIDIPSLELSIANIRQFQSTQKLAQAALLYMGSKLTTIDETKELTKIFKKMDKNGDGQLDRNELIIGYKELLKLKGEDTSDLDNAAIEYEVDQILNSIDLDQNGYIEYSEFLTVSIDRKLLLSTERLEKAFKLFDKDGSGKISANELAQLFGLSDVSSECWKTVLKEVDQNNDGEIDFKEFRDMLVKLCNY
Nature of the assay: MMV: CDPK4 Protein kinase inhibition assay using recombinant PfCDPK4, syntide2 peptide substrate, ATP and KinaseGlo to measure % inhibition at 1 uM MMV box compound.

Assay [3] concerns the target T2, Mitogen-activated protein kinase (Plasmodium falciparum, UniProt Q25917).
T2 sequence (Q25917 whole entry): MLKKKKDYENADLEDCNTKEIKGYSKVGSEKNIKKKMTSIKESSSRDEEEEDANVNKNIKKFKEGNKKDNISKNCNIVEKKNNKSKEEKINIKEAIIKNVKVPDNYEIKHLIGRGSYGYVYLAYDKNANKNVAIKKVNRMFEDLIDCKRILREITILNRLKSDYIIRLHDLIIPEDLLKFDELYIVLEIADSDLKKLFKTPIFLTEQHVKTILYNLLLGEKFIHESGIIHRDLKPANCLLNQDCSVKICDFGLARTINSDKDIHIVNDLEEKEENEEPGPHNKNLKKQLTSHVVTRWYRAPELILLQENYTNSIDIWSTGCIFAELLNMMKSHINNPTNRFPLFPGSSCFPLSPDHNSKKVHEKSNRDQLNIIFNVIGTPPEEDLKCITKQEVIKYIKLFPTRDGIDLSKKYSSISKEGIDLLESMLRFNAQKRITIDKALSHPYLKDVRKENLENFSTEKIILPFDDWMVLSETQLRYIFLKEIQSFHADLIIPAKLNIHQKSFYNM
Nature of the assay: Final concentrations were 1 uM ATP, 0.5 mM DTT, 1 mM MgCl2, 0.5 mg/mL BSA, and 10 ug/ml MAP2 in a buffer of 50 mM HEPES (pH 7.0). 0.5 mg/mL histone III-S served as the substrate (13); 100 uM AMP-PNP, an ATP analog, was used as a control inhibitor. Incubation time was 4 hours.

Assay [4] addresses T3, Proline--tRNA ligase (Plasmodium falciparum (isolate 3D7), UniProt Q8I5R7).
T3 sequence (Q8I5R7 whole entry): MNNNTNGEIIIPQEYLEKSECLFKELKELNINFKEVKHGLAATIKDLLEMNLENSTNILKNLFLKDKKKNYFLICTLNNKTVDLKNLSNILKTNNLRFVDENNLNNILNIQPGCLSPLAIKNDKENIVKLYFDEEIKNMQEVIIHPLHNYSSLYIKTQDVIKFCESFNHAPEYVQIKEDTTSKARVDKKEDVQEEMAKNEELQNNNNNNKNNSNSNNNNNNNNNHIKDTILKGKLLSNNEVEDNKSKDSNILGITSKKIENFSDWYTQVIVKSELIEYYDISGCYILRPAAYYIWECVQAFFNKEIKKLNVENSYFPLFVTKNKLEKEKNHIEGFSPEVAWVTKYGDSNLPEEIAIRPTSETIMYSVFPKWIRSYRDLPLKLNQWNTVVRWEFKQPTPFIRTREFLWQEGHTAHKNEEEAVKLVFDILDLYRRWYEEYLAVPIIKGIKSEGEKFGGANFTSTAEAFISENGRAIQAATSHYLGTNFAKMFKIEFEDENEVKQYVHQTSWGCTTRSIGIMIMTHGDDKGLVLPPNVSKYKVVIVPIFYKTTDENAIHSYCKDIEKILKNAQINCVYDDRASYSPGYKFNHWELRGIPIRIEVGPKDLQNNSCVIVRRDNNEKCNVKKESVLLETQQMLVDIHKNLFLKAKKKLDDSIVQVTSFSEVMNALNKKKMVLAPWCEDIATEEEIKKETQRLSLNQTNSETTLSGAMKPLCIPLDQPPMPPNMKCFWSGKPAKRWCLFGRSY
Briefly: MMV: ProRS recombinant Plasmodium falciparum Prolyl-tRNA-synthetase, assay with yeast tRNA, ATP, and proline and 3 uM MMV malaria box compound, assay read out with kinase glo as % inhibition.

The target in assay [5] is T4, Putative uncharacterized protein pk7 (Plasmodium falciparum, UniProt O96214).
T4 sequence (O96214 whole entry): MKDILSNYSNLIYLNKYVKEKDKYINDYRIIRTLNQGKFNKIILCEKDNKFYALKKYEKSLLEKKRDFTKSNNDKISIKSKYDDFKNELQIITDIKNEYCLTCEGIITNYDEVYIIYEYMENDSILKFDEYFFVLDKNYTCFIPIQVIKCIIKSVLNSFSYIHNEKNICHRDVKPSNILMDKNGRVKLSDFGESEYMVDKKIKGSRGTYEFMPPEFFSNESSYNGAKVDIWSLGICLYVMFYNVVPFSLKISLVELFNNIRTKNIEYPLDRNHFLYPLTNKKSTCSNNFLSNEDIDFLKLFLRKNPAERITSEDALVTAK
Briefly: Final concentrations were 1 uM ATP, 2 mM DTT, 20 mM MgCl2, 2 mM MnCl2, 0.01% BSA, and 6 ug/ml PK7, in a buffer of 20 mM Tris-HCl (pH 7.5). The enzyme itself was the only substrate present (since autophosphorylation occurs); 100 uM 1NA-PP1 was used as a control inhibitor. Incubation time was 3 hours.

Assay [6] addresses Calcium-dependent protein kinase 1 (Plasmodium falciparum, UniProt P62344). Briefly: MMV: CDPK1 Protein kinase inhibition assay using recombinant PfCDPK1, syntide 2 peptide substrate, ATP and KinaseGlo to measure % inhibition at 1 uM MMV box compound.
Assay [7] concerns the target T5, Cdk-related protein kinase 6 (Plasmodium falciparum, UniProt O77239).
T5 sequence (O77239 whole entry): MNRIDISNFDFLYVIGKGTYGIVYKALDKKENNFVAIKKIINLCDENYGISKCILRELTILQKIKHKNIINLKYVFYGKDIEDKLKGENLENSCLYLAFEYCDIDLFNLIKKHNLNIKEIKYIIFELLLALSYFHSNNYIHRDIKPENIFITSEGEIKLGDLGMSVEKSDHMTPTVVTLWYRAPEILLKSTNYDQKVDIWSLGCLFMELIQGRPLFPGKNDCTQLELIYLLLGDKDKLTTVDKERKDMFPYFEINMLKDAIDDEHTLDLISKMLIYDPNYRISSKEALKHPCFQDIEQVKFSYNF
Nature of the assay: Final concentrations were 1.5 uM ATP, 5 mM MnCl2, and 15 ug/ml PK6 in a buffer of 100 mM Tris-HCl (pH 7.5). 50 ug/mL MBP was provided as the substrate; 10 uM staurosporine was used as a control inhibitor. Incubation time was 3 hours and 40 minutes.The catalytic activity of each kinase was considered proportional to ATP consumed, as determined from measurements of residual [ATP] with the luciferase-based reagent Kinase-Glo (Promega) following incubation. Luminescence (proportional to residual [ATP]) was measured on the plate readers FLx800 (BioTek Instruments, Winooski, VT, USA) and MicroBeta2.

SMILES strings stand for the structures. Bounds are passed on as bounds.

The text below walks through data of ChEMBL document CHEMBL3301562, “MMV Box screening against Plasmodium falciparum protein kinases and aminoacyl tRNA synthetases”.

Chain of Lysine--tRNA ligase (Q8IDJ8 whole entry): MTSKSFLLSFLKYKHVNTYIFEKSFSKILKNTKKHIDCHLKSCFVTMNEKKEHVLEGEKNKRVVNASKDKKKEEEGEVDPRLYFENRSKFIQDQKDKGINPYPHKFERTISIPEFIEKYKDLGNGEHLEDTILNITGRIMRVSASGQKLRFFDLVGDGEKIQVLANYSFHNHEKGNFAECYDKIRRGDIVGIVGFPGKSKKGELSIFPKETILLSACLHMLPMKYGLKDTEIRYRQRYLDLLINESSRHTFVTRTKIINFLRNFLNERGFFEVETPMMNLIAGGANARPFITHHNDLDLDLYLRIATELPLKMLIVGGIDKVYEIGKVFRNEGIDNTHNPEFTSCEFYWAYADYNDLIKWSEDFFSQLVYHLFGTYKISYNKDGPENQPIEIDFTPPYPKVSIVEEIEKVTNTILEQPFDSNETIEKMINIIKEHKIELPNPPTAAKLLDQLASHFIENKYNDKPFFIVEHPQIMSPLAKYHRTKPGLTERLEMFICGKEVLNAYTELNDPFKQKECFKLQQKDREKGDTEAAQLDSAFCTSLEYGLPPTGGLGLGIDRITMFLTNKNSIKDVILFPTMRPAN
Chain of Calcium-dependent protein kinase 1 (P62344 whole entry): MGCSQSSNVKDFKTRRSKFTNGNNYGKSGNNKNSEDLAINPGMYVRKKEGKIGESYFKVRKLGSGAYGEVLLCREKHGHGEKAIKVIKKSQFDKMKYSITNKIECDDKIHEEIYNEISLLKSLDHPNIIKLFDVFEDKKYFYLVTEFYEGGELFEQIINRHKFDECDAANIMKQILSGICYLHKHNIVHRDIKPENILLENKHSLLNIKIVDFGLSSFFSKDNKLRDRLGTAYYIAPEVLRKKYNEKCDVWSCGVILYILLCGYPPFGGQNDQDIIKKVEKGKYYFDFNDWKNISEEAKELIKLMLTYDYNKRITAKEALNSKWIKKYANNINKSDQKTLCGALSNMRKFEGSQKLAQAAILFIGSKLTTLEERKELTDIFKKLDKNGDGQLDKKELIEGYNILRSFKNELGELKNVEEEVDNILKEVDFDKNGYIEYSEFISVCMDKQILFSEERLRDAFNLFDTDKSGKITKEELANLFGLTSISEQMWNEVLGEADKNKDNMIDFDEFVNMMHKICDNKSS

In the case of `CCOC(=O)C1=C(C)N=c2sc(=Cc3ccccc3O)c(=O)n2C1c1ccc(OC)c2ccccc12` (stereo not drawn), the IC50 – broadly, the concentration needed to halve the response being measured – in assay [1] was greater than 2500 nM; in assay [2], greater than 1000 nM; in assay [3], greater than 1000 nM; in assay [4] it was greater than 2500 nM; in assay [5] it was greater than 1000 nM; in assay [6], greater than 1000 nM. In assay [7], the IC50 is greater than 1000 nM.

On to `Nc1ccc(-c2nc3cc(Cc4ccc5[nH]c(-c6ccc(N)cc6)nc5c4)ccc3[nH]2)cc1`, for which the IC50 was greater than 2500 nM in assay [1]; greater than 1000 nM in assay [2]; greater than 1000 nM in assay [3]; greater than 2500 nM in assay [4]; greater than 1000 nM in assay [5]; greater than 1000 nM in assay [6]. Besides, the IC50 in assay [7] was greater than 1000 nM.

For `CCCCOC(=O)c1ccc(Nc2cc(C)nc3ccc(OC)cc23)cc1`, the IC50 in assay [1] is greater than 2500 nM; in assay [2], greater than 1000 nM; in assay [3] it was greater than 1000 nM; in assay [4] it was greater than 2500 nM; in assay [5], greater than 1000 nM; in assay [6], greater than 1000 nM. This compound also yielded an IC50 in assay [7] greater than 1000 nM.

Consider `O=c1cc(NC2CCN(CCCc3ccccc3)CC2)c2cc(Cl)ccc2o1`, for which the half-inhibitory concentration (IC50) was greater than 2500 nM in assay [1]; greater than 1000 nM in assay [2]; greater than 1000 nM in assay [3]; greater than 2500 nM in assay [4]; greater than 1000 nM in assay [5]; greater than 1000 nM in assay [6]. In assay [7], this compound had an IC50 greater than 1000 nM.

As to `CCOc1ccc(-n2cc(-c3ccccc3)c3c(SCc4cc(C)ccc4C)ncnc32)cc1`, the half-inhibitory concentration (IC50) is greater than 2500 nM in assay [1]; greater than 1000 nM in assay [2]; greater than 1000 nM in assay [3]; greater than 2500 nM in assay [4]; greater than 1000 nM in assay [5]; greater than 1000 nM in assay [6]. This compound also returned an IC50 in assay [7] greater than 1000 nM.

Take `Cc1ccc2cc3c(N)c4c(C)ccc(C)c4nc3nc2c1`: the IC50 in assay [1] was greater than 2500 nM; in assay [2], greater than 1000 nM; in assay [3], greater than 1000 nM; in assay [4], greater than 2500 nM; in assay [5], greater than 1000 nM; in assay [6] it was greater than 1000 nM. For the same compound, the IC50 in assay [7] was greater than 1000 nM.

Turning to `COc1ccc(C2C(C(=O)Nc3cccc(OC)c3)c3ccccc3C(=O)N2C2CCCCC2)cc1` (stereo not drawn), the IC50 in assay [1] was greater than 2500 nM; in assay [2] it was greater than 1000 nM; in assay [3], greater than 1000 nM; in assay [4] it was greater than 2500 nM; in assay [5] it was greater than 1000 nM; in assay [6], greater than 1000 nM. Moreover, the IC50 in assay [7] is greater than 1000 nM.

As to `c1ccc2c(NCCc3c[nH]c4ccccc34)c3ccccc3nc2c1`, the half-inhibitory concentration (IC50) is greater than 2500 nM in assay [1]; greater than 1000 nM in assay [2]; greater than 1000 nM in assay [3]; greater than 2500 nM in assay [4]; greater than 1000 nM in assay [5]; greater than 1000 nM in assay [6]. In assay [7], this compound yielded an IC50 greater than 1000 nM.

On to `CCOC(=O)c1cnc2c(C)cccc2c1Nc1ccc(C(C)=O)cc1`, for which the half-maximal inhibitory concentration (IC50) in assay [1] is greater than 2500 nM; in assay [2], greater than 1000 nM; in assay [3], greater than 1000 nM; in assay [4], greater than 2500 nM; in assay [5], greater than 1000 nM; in assay [6], greater than 1000 nM. Besides, the IC50 in assay [7] was greater than 1000 nM.

`COc1cccc(C(=O)NC(c2ccc(C)cc2)c2cc(Cl)c3cccnc3c2O)c1` (stereo not drawn): the IC50 in assay [1] was greater than 2500 nM; in assay [2] it was greater than 1000 nM; in assay [3], greater than 1000 nM; in assay [4], greater than 2500 nM; in assay [5] it was greater than 1000 nM; in assay [6], greater than 1000 nM. The same compound showed a concentration for half-maximal inhibition (IC50) in assay [7] greater than 1000 nM.

As to `CCOc1ccc2c(c1)CN(Cc1ccc(Cl)cc1)CO2`, the IC50 in assay [1] is greater than 2500 nM; in assay [2] it was greater than 1000 nM; in assay [3], greater than 1000 nM; in assay [4], greater than 2500 nM; in assay [5], greater than 1000 nM; in assay [6], greater than 1000 nM. Also, in assay [7], the half-maximal inhibitory concentration (IC50) was greater than 1000 nM.

`CCCc1c(C)nc2ccc(Br)cc2c1O`: the IC50 is greater than 2500 nM in assay [1]; greater than 1000 nM in assay [2]; greater than 1000 nM in assay [3]; greater than 2500 nM in assay [4]; greater than 1000 nM in assay [5]; greater than 1000 nM in assay [6]. Moreover, the concentration for half-maximal inhibition (IC50) in assay [7] was greater than 1000 nM.

Take `CCOc1ccc(Nc2c3ccccc3nc3ccccc23)cc1`: the IC50 in assay [1] was greater than 2500 nM; in assay [2] it was greater than 1000 nM; in assay [3], greater than 1000 nM; in assay [4], greater than 2500 nM; in assay [5], greater than 1000 nM; in assay [6], greater than 1000 nM. Moreover, the concentration for half-maximal inhibition (IC50) in assay [7] is greater than 1000 nM.

With `COc1ccccc1N1C(=N)SC(=Cc2ccc(OCc3ccccc3F)cc2)C1=O`, the IC50 is greater than 2500 nM in assay [1]; greater than 1000 nM in assay [2]; greater than 1000 nM in assay [3]; greater than 2500 nM in assay [4]; greater than 1000 nM in assay [5]; greater than 1000 nM in assay [6]. Further, in assay [7], the half-inhibitory concentration (IC50) is greater than 1000 nM.
